Reference: ChEMBL document CHEMBL4507290 (2021)

Key:
[1] = biological target: Activin receptor type-1 (Homo sapiens) (UniProt Q04771); conditions: Compound concentration 1000.0 nM
[2] = biological target: Activin receptor type-2B (Homo sapiens) (UniProt Q13705); conditions: Compound concentration 1000.0 nM
[3] = biological target: Aurora kinase B (Homo sapiens) (UniProt Q96GD4); conditions: Compound concentration 1000.0 nM
[4] = biological target: Calcium/calmodulin-dependent protein kinase type II subunit gamma (Homo sapiens) (UniProt Q13555); conditions: Compound concentration 1000.0 nM
Chain of Calcium/calmodulin-dependent protein kinase type II subunit gamma (Homo sapiens) (Q13555 whole entry): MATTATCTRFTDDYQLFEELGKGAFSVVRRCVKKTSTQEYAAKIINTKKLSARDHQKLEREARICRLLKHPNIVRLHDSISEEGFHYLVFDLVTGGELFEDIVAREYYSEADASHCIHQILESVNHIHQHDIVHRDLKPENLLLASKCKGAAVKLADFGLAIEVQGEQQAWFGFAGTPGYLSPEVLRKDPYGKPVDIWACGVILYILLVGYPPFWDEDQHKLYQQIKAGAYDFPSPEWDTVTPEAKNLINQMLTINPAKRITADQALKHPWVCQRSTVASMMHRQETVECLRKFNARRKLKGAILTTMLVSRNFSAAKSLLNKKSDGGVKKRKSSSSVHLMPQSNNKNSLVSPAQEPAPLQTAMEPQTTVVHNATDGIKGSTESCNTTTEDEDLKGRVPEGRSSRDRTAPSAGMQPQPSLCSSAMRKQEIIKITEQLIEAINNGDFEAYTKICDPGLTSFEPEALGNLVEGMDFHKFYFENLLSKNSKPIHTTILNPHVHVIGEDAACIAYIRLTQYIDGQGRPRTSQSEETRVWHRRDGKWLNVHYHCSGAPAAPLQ

[5] = biological target: Cyclin-dependent kinase-like 3 (Homo sapiens) (UniProt Q8IVW4); conditions: Compound concentration 1000.0 nM
[6] = biological target: Megakaryocyte-associated tyrosine-protein kinase (Homo sapiens) (UniProt P42679); conditions: Compound concentration 1000.0 nM
[7] = biological target: Discoidin domain-containing receptor 2 (Homo sapiens) (UniProt Q16832); conditions: Compound concentration 1000.0 nM
Chain of Discoidin domain-containing receptor 2 (Homo sapiens) (Q16832 whole entry, the tested form may be a part): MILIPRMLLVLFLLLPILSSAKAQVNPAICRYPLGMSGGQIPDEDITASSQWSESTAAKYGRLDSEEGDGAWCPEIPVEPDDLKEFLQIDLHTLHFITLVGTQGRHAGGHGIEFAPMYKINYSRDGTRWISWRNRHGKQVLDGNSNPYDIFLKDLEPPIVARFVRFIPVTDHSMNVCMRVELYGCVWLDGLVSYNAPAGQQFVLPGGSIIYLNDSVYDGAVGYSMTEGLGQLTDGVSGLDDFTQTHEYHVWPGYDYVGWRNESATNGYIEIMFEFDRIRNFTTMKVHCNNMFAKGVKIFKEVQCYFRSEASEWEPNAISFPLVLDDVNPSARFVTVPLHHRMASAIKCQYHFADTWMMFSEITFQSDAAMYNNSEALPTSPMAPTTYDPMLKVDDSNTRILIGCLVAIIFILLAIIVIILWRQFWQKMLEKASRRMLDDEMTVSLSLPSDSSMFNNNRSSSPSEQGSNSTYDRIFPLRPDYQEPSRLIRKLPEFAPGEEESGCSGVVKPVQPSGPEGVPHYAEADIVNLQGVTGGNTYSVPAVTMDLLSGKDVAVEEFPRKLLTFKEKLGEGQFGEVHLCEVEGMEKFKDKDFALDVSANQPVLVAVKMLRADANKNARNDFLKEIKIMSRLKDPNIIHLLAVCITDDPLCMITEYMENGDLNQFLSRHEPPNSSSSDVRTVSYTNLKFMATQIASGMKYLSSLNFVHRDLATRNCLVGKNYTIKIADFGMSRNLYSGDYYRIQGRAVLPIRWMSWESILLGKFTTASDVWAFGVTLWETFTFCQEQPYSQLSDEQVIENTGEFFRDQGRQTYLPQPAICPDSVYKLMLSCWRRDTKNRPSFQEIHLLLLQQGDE

[8] = tested on: Epidermal growth factor receptor (Homo sapiens), P00533 [G719S]; conditions: Compound concentration 1000.0 nM
[9] = tested on: Epidermal growth factor receptor (Homo sapiens), P00533 [UNDEFINED MUTATION]; conditions: Compound concentration 1000.0 nM
[10] = tested on: Epidermal growth factor receptor (Homo sapiens), P00533 [UNDEFINED MUTATION]; conditions: Compound concentration 1000.0 nM; remark: listed apart in the source
[11] = tested on: Epidermal growth factor receptor (Homo sapiens), P00533 [L858R]; conditions: Compound concentration 1000.0 nM
[12] = biological target: Ephrin type-A receptor 4 (Homo sapiens) (UniProt P54764); conditions: Compound concentration 1000.0 nM
Chain of Ephrin type-A receptor 4 (Homo sapiens) (P54764 whole entry): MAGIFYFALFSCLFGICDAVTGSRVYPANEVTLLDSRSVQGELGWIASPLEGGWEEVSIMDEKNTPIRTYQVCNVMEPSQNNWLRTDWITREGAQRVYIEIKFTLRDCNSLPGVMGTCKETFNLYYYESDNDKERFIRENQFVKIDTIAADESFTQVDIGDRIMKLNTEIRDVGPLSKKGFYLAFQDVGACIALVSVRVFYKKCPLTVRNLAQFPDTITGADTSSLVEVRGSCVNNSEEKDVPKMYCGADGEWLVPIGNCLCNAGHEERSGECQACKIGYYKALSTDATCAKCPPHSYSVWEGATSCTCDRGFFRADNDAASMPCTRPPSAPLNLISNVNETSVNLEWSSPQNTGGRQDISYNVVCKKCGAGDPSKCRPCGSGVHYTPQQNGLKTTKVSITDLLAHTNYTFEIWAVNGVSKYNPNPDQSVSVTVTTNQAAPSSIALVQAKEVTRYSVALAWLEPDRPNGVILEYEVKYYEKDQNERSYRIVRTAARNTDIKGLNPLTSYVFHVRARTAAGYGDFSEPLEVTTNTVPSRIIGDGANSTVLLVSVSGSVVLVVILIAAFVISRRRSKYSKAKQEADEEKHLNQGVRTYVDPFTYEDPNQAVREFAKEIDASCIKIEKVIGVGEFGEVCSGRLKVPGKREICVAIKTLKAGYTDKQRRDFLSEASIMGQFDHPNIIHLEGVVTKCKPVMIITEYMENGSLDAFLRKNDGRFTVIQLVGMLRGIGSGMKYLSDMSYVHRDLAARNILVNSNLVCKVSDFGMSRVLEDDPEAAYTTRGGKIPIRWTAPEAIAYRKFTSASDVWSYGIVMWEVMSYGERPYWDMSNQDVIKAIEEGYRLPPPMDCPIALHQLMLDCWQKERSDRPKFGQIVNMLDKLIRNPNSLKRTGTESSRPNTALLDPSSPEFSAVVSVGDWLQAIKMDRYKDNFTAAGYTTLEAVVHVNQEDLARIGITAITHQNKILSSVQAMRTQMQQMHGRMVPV

[13] = biological target: Ephrin type-A receptor 8 (Homo sapiens) (UniProt P29322); conditions: Compound concentration 1000.0 nM
[14] = biological target: Receptor-type tyrosine-protein kinase FLT3 (Homo sapiens) (UniProt P36888); conditions: Compound concentration 1000.0 nM
[15] = biological target: Rhodopsin kinase GRK7 (Homo sapiens) (UniProt Q8WTQ7); conditions: Compound concentration 1000.0 nM
[16] = biological target: Glycogen synthase kinase-3 alpha (Homo sapiens) (UniProt P49840); conditions: Compound concentration 1000.0 nM
[17] = biological target: Interleukin-1 receptor-associated kinase 1 (Homo sapiens) (UniProt P51617); conditions: Compound concentration 1000.0 nM
[18] = biological target: Serine/threonine-protein kinase MARK1 (Homo sapiens) (UniProt Q9P0L2); conditions: Compound concentration 1000.0 nM
[19] = biological target: Dual specificity mitogen-activated protein kinase kinase 5 (Homo sapiens) (UniProt Q13163); conditions: Compound concentration 1000.0 nM
[20] = biological target: Serine/threonine-protein kinase 24 (Homo sapiens) (UniProt Q9Y6E0); conditions: Compound concentration 1000.0 nM
Chain of Serine/threonine-protein kinase 24 (Homo sapiens) (Q9Y6E0 whole entry, looked up): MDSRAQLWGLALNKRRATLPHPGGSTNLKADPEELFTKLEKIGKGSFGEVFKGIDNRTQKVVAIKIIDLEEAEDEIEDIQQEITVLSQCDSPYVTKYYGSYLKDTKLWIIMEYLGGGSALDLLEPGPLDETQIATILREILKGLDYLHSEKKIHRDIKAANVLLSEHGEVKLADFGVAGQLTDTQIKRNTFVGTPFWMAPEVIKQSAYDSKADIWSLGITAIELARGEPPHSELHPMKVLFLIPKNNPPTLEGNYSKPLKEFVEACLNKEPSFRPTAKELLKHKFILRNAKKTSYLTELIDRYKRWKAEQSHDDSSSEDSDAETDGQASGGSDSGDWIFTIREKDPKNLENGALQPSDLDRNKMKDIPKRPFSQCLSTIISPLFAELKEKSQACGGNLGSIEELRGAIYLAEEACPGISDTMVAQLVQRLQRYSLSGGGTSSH

[21] = biological target: Myosin-IIIb (Homo sapiens) (UniProt Q8WXR4); conditions: Compound concentration 1000.0 nM
[22] = biological target: Serine/threonine-protein kinase Nek10 (Homo sapiens) (UniProt Q6ZWH5); conditions: Compound concentration 1000.0 nM
[23] = biological target: Serine/threonine-protein kinase Nek11 (Homo sapiens) (UniProt Q8NG66); conditions: Compound concentration 1000.0 nM
[24] = biological target: Serine/threonine-protein kinase Nek2 (Homo sapiens) (UniProt P51955); conditions: Compound concentration 1000.0 nM
[25] = biological target: Serine/threonine-protein kinase Nek7 (Homo sapiens) (UniProt Q8TDX7); conditions: Compound concentration 1000.0 nM
[26] = biological target: Serine/threonine-protein kinase NLK (Homo sapiens) (UniProt Q9UBE8); conditions: Compound concentration 1000.0 nM
[27] = biological target: Serine/threonine-protein kinase OSR1 (Homo sapiens) (UniProt O95747); conditions: Compound concentration 1000.0 nM
[28] = biological target: Serine/threonine-protein kinase PAK 5 (Homo sapiens) (UniProt Q9P286); conditions: Compound concentration 1000.0 nM
[29] = biological target: Platelet-derived growth factor receptor beta (Homo sapiens) (UniProt P09619); conditions: Compound concentration 1000.0 nM
[30] = tested on: Phosphatidylinositol 4,5-bisphosphate 3-kinase catalytic subunit alpha isoform (Homo sapiens), P42336 [H1047L]; conditions: Compound concentration 1000.0 nM
[31] = biological target: Phosphatidylinositol 4,5-bisphosphate 3-kinase catalytic subunit beta isoform (Homo sapiens) (UniProt P42338); conditions: Compound concentration 1000.0 nM
Chain of Phosphatidylinositol 4,5-bisphosphate 3-kinase catalytic subunit beta isoform (Homo sapiens) (P42338 whole entry, looked up, canonical isoform): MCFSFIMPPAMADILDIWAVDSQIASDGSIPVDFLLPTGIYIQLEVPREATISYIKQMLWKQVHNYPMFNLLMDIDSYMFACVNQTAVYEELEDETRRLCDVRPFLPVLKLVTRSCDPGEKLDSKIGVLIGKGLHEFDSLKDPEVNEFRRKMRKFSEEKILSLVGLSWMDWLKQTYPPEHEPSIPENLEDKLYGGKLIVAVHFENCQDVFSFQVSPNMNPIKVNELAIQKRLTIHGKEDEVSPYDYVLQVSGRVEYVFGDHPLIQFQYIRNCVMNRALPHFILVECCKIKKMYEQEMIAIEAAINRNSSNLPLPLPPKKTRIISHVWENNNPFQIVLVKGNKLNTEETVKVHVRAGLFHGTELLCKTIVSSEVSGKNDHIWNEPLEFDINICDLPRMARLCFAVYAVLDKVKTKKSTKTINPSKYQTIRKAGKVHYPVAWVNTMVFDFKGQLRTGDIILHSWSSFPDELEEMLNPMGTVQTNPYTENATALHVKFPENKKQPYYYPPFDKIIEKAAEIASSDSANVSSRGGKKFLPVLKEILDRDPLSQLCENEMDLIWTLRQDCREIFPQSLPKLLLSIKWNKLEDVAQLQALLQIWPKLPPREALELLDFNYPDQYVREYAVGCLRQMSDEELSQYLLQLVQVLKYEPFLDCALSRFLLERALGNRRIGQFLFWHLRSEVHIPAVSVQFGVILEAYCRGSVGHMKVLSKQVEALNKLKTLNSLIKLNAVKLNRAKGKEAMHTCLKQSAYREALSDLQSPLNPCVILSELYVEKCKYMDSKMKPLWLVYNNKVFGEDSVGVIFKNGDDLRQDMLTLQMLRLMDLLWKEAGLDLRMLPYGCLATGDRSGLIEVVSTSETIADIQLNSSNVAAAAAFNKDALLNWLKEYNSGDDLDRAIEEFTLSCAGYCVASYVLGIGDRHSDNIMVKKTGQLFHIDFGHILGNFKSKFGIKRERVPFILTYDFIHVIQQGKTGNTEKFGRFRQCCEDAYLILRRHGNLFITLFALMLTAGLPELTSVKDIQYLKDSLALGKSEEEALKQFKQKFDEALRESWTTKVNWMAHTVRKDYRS

[32] = biological target: Serine/threonine-protein kinase PRP4 homolog (Homo sapiens) (UniProt Q13523); conditions: Compound concentration 1000.0 nM
[33] = biological target: RAF proto-oncogene serine/threonine-protein kinase (Homo sapiens) (UniProt P04049); conditions: Compound concentration 1000.0 nM
[34] = tested on: Proto-oncogene tyrosine-protein kinase receptor Ret (Homo sapiens), P07949 [M918T]; conditions: Compound concentration 1000.0 nM
[35] = biological target: Dual serine/threonine and tyrosine protein kinase (Homo sapiens) (UniProt Q6XUX3); conditions: Compound concentration 1000.0 nM
[36] = biological target: Serine/threonine-protein kinase Sgk3 (Homo sapiens) (UniProt Q96BR1); conditions: Compound concentration 1000.0 nM
[37] = biological target: Dual specificity testis-specific protein kinase 1 (Homo sapiens) (UniProt Q15569); conditions: Compound concentration 1000.0 nM
[38] = biological target: NT-3 growth factor receptor (Homo sapiens) (UniProt Q16288); conditions: Compound concentration 1000.0 nM
[39] = biological target: Dual specificity protein kinase TTK (Homo sapiens) (UniProt P33981); conditions: Compound concentration 1000.0 nM
[40] = biological target: Tyrosine-protein kinase TXK (Homo sapiens) (UniProt P42681); conditions: Compound concentration 1000.0 nM
[41] = biological target: Wee1-like protein kinase (Homo sapiens) (UniProt P30291); conditions: Compound concentration 1000.0 nM
Chain of Wee1-like protein kinase (Homo sapiens) (P30291 whole entry, looked up): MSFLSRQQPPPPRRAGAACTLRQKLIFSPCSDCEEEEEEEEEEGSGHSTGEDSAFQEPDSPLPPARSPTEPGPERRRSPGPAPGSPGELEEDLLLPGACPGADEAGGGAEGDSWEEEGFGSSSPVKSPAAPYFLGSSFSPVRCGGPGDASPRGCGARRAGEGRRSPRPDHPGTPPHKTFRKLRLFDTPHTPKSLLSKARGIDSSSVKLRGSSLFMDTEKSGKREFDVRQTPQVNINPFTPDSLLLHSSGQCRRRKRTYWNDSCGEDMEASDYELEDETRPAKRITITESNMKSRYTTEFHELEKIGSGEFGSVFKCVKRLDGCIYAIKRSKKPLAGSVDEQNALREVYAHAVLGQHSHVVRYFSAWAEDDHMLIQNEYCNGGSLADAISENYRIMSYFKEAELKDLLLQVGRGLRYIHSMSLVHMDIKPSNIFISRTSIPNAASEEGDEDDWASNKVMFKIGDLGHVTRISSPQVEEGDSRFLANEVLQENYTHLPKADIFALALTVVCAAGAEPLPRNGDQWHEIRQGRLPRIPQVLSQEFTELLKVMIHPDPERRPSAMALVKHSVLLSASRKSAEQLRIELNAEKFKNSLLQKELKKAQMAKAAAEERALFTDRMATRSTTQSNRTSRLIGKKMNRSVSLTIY

[42] = biological target: Serine/threonine-protein kinase 25 (Homo sapiens) (UniProt O00506); conditions: Compound concentration 1000.0 nM
[43] = biological target: 5-hydroxytryptamine receptor 2C (Homo sapiens) (UniProt P28335); conditions: Compound concentration 10.0 uM
[44] = biological target: GABA-A receptor; anion channel (Rattus norvegicus) (UniProt O09028+P15431+P18506+P18508+P19969+P20236+P23574+P23576+P28471+P28473+P30191+P62813+P63079+P63138+Q91ZM7+Q9ES14); conditions: Compound concentration 10.0 uM

Chain of Activin receptor type-2B (Homo sapiens) (Q13705 whole entry): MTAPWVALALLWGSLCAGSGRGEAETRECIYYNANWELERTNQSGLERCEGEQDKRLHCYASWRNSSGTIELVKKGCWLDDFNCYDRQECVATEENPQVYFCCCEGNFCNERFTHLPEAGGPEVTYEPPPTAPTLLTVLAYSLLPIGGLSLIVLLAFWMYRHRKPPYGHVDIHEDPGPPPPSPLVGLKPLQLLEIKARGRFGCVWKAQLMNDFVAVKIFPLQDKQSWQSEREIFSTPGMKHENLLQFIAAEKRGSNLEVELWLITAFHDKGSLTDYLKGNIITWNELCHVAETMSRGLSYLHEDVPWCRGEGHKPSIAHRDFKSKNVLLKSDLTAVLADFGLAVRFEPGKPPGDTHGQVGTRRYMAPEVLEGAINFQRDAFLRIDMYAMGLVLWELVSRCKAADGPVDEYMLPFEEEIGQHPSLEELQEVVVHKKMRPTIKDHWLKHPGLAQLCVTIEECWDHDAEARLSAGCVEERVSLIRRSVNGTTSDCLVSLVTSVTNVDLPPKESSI

CN([C@@H]1CCc2c(CC(=O)O)c3cc(S(C)(=O)=O)ccc3n2C1)S(=O)(=O)c1ccc(F)cc1
inactive: residual activity [1] 90% | residual activity [2] 100% | residual activity [3] 83% | residual activity [4] 100% | residual activity [5] 100% | residual activity [6] 100% | residual activity [7] 88% | residual activity [8] 100% | residual activity [9] 80% | residual activity [10] 100% | residual activity [11] 91% | residual activity [12] 93% | residual activity [13] 98% | residual activity [14] 100% | residual activity [15] 97% | residual activity [16] 100% | residual activity [17] 91% | residual activity [18] 89% | residual activity [19] 100% | residual activity [20] 100% | residual activity [21] 100% | residual activity [22] 91% | residual activity [23] 100% | residual activity [24] 100% | residual activity [25] 98% | residual activity [26] 100% | residual activity [27] 100% | residual activity [28] 100% | residual activity [29] 86% | residual activity [30] 96% | residual activity [31] 100% | residual activity [32] 100% | residual activity [33] 100% | residual activity [34] 100% | residual activity [35] 77% | residual activity [36] 85% | residual activity [37] 73% | residual activity [38] 100% | residual activity [39] 100% | residual activity [40] 74% | residual activity [41] 100% | residual activity [42] 100% | inhibition [43] 0.933% | inhibition [44] 10.8%

CN([C@@H]1CCc2c(CC(=O)O)c3ccccc3n2C1)S(=O)(=O)c1ccc(F)cc1 [MK-7246]
inactive: residual activity [1] 100% | residual activity [2] 98% | residual activity [3] 91% | residual activity [4] 100% | residual activity [5] 85% | residual activity [6] 100% | residual activity [7] 98% | residual activity [8] 100% | residual activity [9] 95% | residual activity [10] 100% | residual activity [11] 93% | residual activity [12] 87% | residual activity [13] 100% | residual activity [14] 100% | residual activity [15] 93% | residual activity [16] 90% | residual activity [17] 78% | residual activity [18] 100% | residual activity [19] 100% | residual activity [20] 100% | residual activity [21] 100% | residual activity [22] 85% | residual activity [23] 100% | residual activity [24] 100% | residual activity [25] 100% | residual activity [26] 100% | residual activity [27] 100% | residual activity [28] 100% | residual activity [29] 97% | residual activity [30] 100% | residual activity [31] 88% | residual activity [32] 99% | residual activity [33] 100% | residual activity [34] 97% | residual activity [35] 82% | residual activity [36] 100% | residual activity [37] 91% | residual activity [38] 100% | residual activity [39] 100% | residual activity [40] 93% | residual activity [41] 100% | residual activity [42] 99% | inhibition [43] -1.51% | inhibition [44] 22.4%
